According to patent publication US20160046618A1, “Cyclopropyl Fused Thiazin-2-Amine Compounds as Beta-Secretase Inhibitors and Methods of Use” (AMGEN INC., priority 2014, published 2016):
Like-named read-outs stand apart in the source and are kept apart here.

How the values were obtained:
human recombinant BACE1 = human recombinant BACE1 (Homo sapiens (Human), UniProt P56817); test: In vitro enzymatic BACE1 FRET assay; assay type: biochemical; conditions: read-out: IC50 IP (μM) BACE1 enzyme
Outline: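 Fluorescence from cleavage of a quenched peptide spanning the BACE site (50 nM) was read at 488 nm excitation, 590 nm emission. Purified enzyme (Ni-NTA) and compound reacted for one hour before a Tris stop shifted pH to neutral.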

human recombinant BACE2 = human recombinant BACE2 (Homo sapiens (Human), UniProt Q9Y5Z0); test: In vitro enzymatic BACE2 FRET assay; assay type: biochemical; conditions: read-out: IC50 IP (μM) BACE2 enzyme
human recombinant BACE2, sequence (Q9Y5Z0 63-518): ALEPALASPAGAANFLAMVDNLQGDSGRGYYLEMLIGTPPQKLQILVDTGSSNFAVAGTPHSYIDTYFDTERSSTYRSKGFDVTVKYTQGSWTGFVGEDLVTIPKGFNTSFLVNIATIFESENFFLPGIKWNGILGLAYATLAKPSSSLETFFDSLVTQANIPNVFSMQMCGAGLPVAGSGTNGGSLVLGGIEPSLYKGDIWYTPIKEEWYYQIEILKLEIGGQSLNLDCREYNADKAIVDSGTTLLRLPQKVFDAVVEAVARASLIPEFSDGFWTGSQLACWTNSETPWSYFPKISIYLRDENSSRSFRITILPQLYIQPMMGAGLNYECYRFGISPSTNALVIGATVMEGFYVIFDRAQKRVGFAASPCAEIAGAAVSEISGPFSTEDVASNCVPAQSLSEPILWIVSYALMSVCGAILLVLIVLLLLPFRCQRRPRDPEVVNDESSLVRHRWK
Protocol: These recombinant proteins were further purified using Ni-NTA affinity chromatography (Qiagen). […] This assay is effectively started by the addition of FRET substrate (50 nM) and the combination is incubated for one hour. The FRET assay is terminated by addition of Tris buffer, which raises the pH to neutrality, and the fluorescence is determined. The FRET substrate is a peptide with commercially available fluorophore and quencher, on opposite sides of the BACE cleavage site. Proteolytic cleavage of the FRET substrate releases quenching of fluorescence (excitation 488 nm and emission 590 nm).

[1] = system: Aβ40 in conditioned medium of cells stably expressing Amyloid Precursor Protein (APP); test: In vitro BACE-1 cell-based assay (Aβ40 sandwich ELISA); conditions: read-out: IC50 IP (μM) BACE1 cell
Outline: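 Aβ40 in supernatants measured by time-resolved fluorescence sandwich ELISA, with pAb40 as capture and biotin-6E10 as detector antibody, each incubated at 4 °C.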

Recombinant Cat D = Recombinant Cat D (Homo sapiens (Human), UniProt P07339); test: In vitro enzymatic Cathepsin D (Cat D) FRET assay; assay type: biochemical; conditions: read-out: IC50 IP (μM) CatD
Recombinant Cat D, sequence (P07339 65-412): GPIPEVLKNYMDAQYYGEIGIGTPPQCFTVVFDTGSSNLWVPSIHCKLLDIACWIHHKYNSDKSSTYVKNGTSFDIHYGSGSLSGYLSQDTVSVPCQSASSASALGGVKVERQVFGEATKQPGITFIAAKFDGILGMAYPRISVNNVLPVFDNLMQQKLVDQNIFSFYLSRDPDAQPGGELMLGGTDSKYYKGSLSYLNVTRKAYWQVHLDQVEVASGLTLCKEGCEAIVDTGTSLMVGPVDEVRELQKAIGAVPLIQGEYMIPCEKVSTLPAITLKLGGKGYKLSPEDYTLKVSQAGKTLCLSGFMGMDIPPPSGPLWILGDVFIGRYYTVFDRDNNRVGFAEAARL
Outline: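 Cleavage of a 20 nM fluorophore/quencher peptide by CHO-expressed recombinant Cat D proceeded for one hour at pH 3.5 (0.05 M citrate, 5 mM CHAPS, 10% DMSO final). Tris addition neutralized the pH to end the reaction. Fluorescence was then measured (ex 500 nm/em 580 nm).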

human recombinant BACE1, sequence (P56817 46-501): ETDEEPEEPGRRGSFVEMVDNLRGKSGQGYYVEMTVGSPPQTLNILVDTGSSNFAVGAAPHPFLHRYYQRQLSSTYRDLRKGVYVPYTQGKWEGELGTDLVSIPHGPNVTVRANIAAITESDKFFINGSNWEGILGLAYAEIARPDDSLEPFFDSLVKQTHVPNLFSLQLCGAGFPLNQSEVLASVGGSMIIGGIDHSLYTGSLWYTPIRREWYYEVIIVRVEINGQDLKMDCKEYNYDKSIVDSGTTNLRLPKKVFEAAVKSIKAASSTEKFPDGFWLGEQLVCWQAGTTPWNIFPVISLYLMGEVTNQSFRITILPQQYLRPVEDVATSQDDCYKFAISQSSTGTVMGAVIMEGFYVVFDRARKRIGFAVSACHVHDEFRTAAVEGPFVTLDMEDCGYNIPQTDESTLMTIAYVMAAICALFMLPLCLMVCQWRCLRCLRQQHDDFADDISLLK

| IC50 (human recombinant BACE1) | IC50 (human recombinant BACE2) | IC50 [1] | IC50 (Recombinant Cat D) | IC50 (human recombinant BACE1; BACE1 FRET enzyme assay) | IC50 (human recombinant BACE2; BACE2 FRET enzyme assay) | IC50 ([1]; BACE1 cell-based assay) | IC50 (Recombinant Cat D; Cathepsin D FRET enzyme assay) | Structure (SMILES) |
| --- | --- | --- | --- | --- | --- | --- | --- | --- |
| 0.0609 µM | 0.652 µM | 0.172 µM | 621 µM |  |  |  |  | COC[C@]12C[C@H]1[C@@](C)(c1cc(NC(=O)c3ncc(O[C@@H](C)c4ncco4)nc3C)cc(F)c1F)N=C(N)S2 [Example 864, N-(3-((1S,5S,6S)-3-amino-1-(methoxymethyl)-5-methyl-2-thia-4-azabicyclo[4.1.0]hept-3-en-5-yl)-4,5-difluorophenyl)-3-methyl-5-((1S)-1-(1,3-oxazol-2-yl)ethoxy)-2-pyrazinecarboxamide] |
| 0.00213 µM | 0.072 µM | 0.0414 µM | 243 µM |  |  |  |  | C=C(C)COc1cnc(C(=O)Nc2cc(F)c(F)c([C@@]3(C)N=C(N)S[C@@]4(COC)C[C@H]43)c2)cn1 [Example 1030, N-(3-((1S,5S,6S)-3-amino-1-(methoxymethyl)-5-methyl-2-thia-4-azabicyclo[4.1.0]hept-3-en-5-yl)-4,5-difluorophenyl)-5-((2-methyl-2-propen-1-yl)oxy)-2-pyrazinecarboxamide] |
| 0.000725 µM | 0.0173 µM | 0.00155 µM | 127 µM |  |  |  |  | CC#CCOc1cnc2c(Nc3cc(F)c(F)c([C@@]4(C)N=C(N)S[C@@]5(COC)C[C@H]54)c3)nccc2n1 [Example 869, N-(3-((1S,5S,6S)-3-amino-1-(methoxymethyl)-5-methyl-2-thia-4-azabicyclo[4.1.0]hept-3-en-5-yl)-4,5-difluorophenyl)-2-(2-butyn-1-yloxy)pyrido[3,4-b]pyrazin-5-amine] |
| 0.117 µM | 2.52 µM | 0.569 µM | > 400 µM |  |  |  |  | COC[C@]12C[C@H]1[C@@](C)(c1cc(NC(=O)c3ncc(O[C@@H](C)c4ncco4)cc3C)cc(F)c1F)N=C(N)S2 [Example 687, N-(3-((1S,5S,6S)-3-amino-1-(methoxymethyl)-5-methyl-2-thia-4-azabicyclo[4.1.0]hept-3-en-5-yl)-4,5-difluorophenyl)-3-methyl-5-((1S)-1-(1,3-oxazol-2-yl)ethoxy)-2-pyridinecarboxamide] |
| 0.0027 µM | 0.081 µM | 0.0047 µM | > 400 µM |  |  |  |  | COC[C@]12C[C@H]1[C@@](C)(c1cc(NC(=O)c3cnc(OCCF)cn3)cc(F)c1F)N=C(N)S2 [Example 1064, N-(3-((1S,5S,6S)-3-amino-1-(methoxymethyl)-5-methyl-2-thia-4-azabicyclo[4.1.0]hept-3-en-5-yl)-4,5-difluorophenyl)-5-(2-fluoroethoxy)-2-pyrazinecarboxamide] |
| 0.000776 µM | 0.00801 µM | 0.0019 µM | 354 µM |  |  |  |  | C#CCOc1cnc(C(=O)Nc2ccc(F)c([C@@]3(C)N=C(N)S[C@@]4(CF)C[C@H]43)c2)c(C)n1 [Example 829, N-(3-((1S,5S,6S)-3-amino-1-(fluoromethyl)-5-methyl-2-thia-4-azabicyclo[4.1.0]hept-3-en-5-yl)-4-fluorophenyl)-3-methyl-5-(2-propyn-1-yloxy)-2-pyrazinecarboxamide] |
| 0.000467 µM | 0.00101 µM | 0.000795 µM | > 400 µM |  |  |  |  | C#CCOc1cnc2c(Nc3cc(F)c(F)c([C@@]4(C)N=C(N)S[C@@]5(C(=O)N(C)C)C[C@H]54)c3)nccc2n1 [Example 912, (1S,5S,6S)-3-amino-5-(2,3-difluoro-5-((2-(2-propyn-1-yloxy)pyrido[3,4-b]pyrazin-5-yl)amino)phenyl)-N,N,5-trimethyl-2-thia-4-azabicyclo[4.1.0]hept-3-ene-1-carboxamide] |

Second part, the compound before the results:

| Structure (SMILES) | IC50 (human recombinant BACE1) | IC50 (human recombinant BACE2) | IC50 [1] | IC50 (Recombinant Cat D) | IC50 (human recombinant BACE1; BACE1 FRET enzyme assay) | IC50 (human recombinant BACE2; BACE2 FRET enzyme assay) | IC50 ([1]; BACE1 cell-based assay) | IC50 (Recombinant Cat D; Cathepsin D FRET enzyme assay) |
| --- | --- | --- | --- | --- | --- | --- | --- | --- |
| C[C@]1(c2cc(Nc3ncnc4cc(F)cnc34)cc(F)c2F)N=C(N)S[C@H]2C[C@H]21 [Example 636, (1S,5S,6S)-5-(2,3-difluoro-5-((7-fluoropyrido[3,2-d]pyrimidin-4-yl)amino)phenyl)-5-methyl-2-thia-4-azabicyclo[4.1.0]hept-3-en-3-amine] | 0.0918 µM | 0.0298 µM | 0.411 µM | 996 µM |  |  |  |  |
| COC(=O)c1cc(NC(=O)c2ccc(Cl)cn2)cc([C@@]2(C)N=C(N)S[C@@]3(C(=O)OC)C[C@H]32)c1F [Example 855, (1S,5S,6S)-methyl 3-amino-5-(5-(5-chloropicolinamido)-2-fluoro-3-(methoxycarbonyl)phenyl)-5-methyl-2-thia-4-azabicyclo[4.1.0]hept-3-ene-1-carboxylate] | 0.198 µM | 0.0224 µM | 0.294 µM | > 400 µM |  |  |  |  |
| C#CCOc1cnc(C(=O)Nc2cc(F)c(F)c([C@@]3(C)N=C(N)S[C@@]4(C(=O)N5CCOCC5)C[C@H]43)c2)cn1 [Example 1004, N-(3-((1S,5S,6S)-3-amino-5-methyl-1-(morpholine-4-carbonyl)-2-thia-4-azabicyclo[4.1.0]hept-3-en-5-yl)-4,5-difluorophenyl)-5-(prop-2-yn-1-yloxy)pyrazine-2-carboxamide] | 0.0001 µM | 0.00235 µM | 0.000324 µM | 14.9 µM |  |  |  |  |
| C[C@]1(c2cc(NC(=O)c3cnc(OCC(F)(F)F)cn3)ccc2F)N=C(N)S[C@@]2(C(=O)N3CCCC3)C[C@H]21 [Example 634, N-(3-((1S,5S,6S)-3-amino-5-methyl-1-(1-pyrrolidinylcarbonyl)-2-thia-4-azabicyclo[4.1.0]hept-3-en-5-yl)-4-fluorophenyl)-5-(2,2,2-trifluoroethoxy)-2-pyrazinecarboxamide] | 0.000758 µM | 0.00951 µM | 0.000616 µM | 660 µM |  |  |  |  |
| C[C@]1(c2cc(Nc3nccc4[nH]c(=O)cnc34)cc(F)c2F)N=C(N)S[C@@]2(C(F)F)C[C@@H]12 [Example 896, 5-((3-((1S,5S,6S)-3-amino-1-(difluoromethyl)-5-methyl-2-thia-4-azabicyclo[4.1.0]hept-3-en-5-yl)-4,5-difluorophenyl)amino)pyrido[3,4-b]pyrazin-2(1H)-one] | 0.018 µM | 0.0223 µM | 0.135 µM | 128 µM |  |  |  |  |
| C[C@]1(c2cc(NC(=O)c3ccc(Cl)cn3)cc(F)c2F)N=C(N)S[C@@]2(C(=O)N3CCCC3)C[C@H]21 [Example 935, N-(3-((1S,5S,6S)-3-amino-5-methyl-1-(1-pyrrolidinylcarbonyl)-2-thia-4-azabicyclo[4.1.0]hept-3-en-5-yl)-4,5-difluorophenyl)-5-chloro-2-pyridinecarboxamide] | 0.000498 µM | < 0.00203 µM | 0.000889 µM | 254 µM |  |  |  |  |
| [2H]C([2H])([2H])OC[C@]12C[C@H]1[C@@](C)(c1cc(Nc3ncnc4cc(Cl)cnc34)cnc1F)N=C(N)S2 [Example 852, N-(5-((1S,5S,6S)-3-amino-5-methyl-1-(((~2~H_3_)methyloxy)methyl)-2-thia-4-azabicyclo[4.1.0]hept-3-en-5yl)-6-fluoro-3-pyridinyl)-7-chloropyrido[3,2-d]pyrimidin-4-amine] | 0.0127 µM | 0.00758 µM | 0.0101 µM | 1680 µM |  |  |  |  |
| C[C@]1(c2cc(Nc3ncnc4cc(OCc5ncco5)cnc34)cnc2F)N=C(N)S[C@@]2([C@H](O)C(F)(F)F)C[C@H]21 [Example 667, (1R)-1-((1S,5S,6S)-3-amino-5-(2-fluoro-5-((7-(1,3-oxazol-2-ylmethoxy)pyrido[3,2-d]pyrimidin-4-yl)amino)-3-pyridinyl)-5-methyl-2-thia-4-azabicyclo[4.1.0]hept-3-en-1-yl)-2,2,2-trifluoroethanol] | 0.00262 µM | 0.0599 µM | 0.00362 µM | 1160 µM |  |  |  |  |
| COc1cnc(C(=O)Nc2cc(F)c(F)c([C@@]3(CF)N=C(N)S[C@H]4C[C@H]43)c2)c(C)c1 [Example 81, N-(3-((1S,5S,6S)-3-amino-5-(fluoromethyl)-2-thia-4-azabicyclo[4.1.0]hept-3-en-5-yl)-4,5-difluorophenyl)-5-methoxy-3-methyl-2-pyridinecarboxamide] |  |  |  |  | 0.0219 µM | 0.0116 µM | 0.047 µM | 1390 µM |
| C[C@]1(c2cc(Nc3nccc4nc(OCc5ncccc5F)cnc34)cc(F)c2F)N=C(N)S[C@@]2(C(F)F)C[C@@H]12 [Example 873, N-(3-((1S,5S,6S)-3-amino-1-(difluoromethyl)-5-methyl-2-thia-4-azabicyclo[4.1.0]hept-3-en-5-yl)-4,5-difluorophenyl)-2-((3-fluoro-2-pyridinyl)methoxy)pyrido[3,4-b]pyrazin-5-amine] | 0.00175 µM | 0.0358 µM | 0.287 µM | 95.1 µM |  |  |  |  |
